Results as given in article PMC6356859 (ACS Omega, 2019).
“Also recorded” adds a separate entry of the source. Where two headings read alike, the source gives them in different places.

Experiments:
[1] = test system: EBOV; assay: microbe, parasite or virus in culture; assay type: cell-based, Ebola virus
[2] = test system: EBOV; conditions: read-out: IC50 for the inhibition of virus entry in cells; cited from earlier work
[3] = test system: EBOV; conditions: cited from earlier work
[4] = test system: EBOV; conditions: cited from earlier work; remark: listed apart in the source

In the case of `C[C@H]1Cc2c([nH]c3cc(Cl)c(F)cc23)[C@@]2(N1)C(=O)Nc1ccc(Cl)cc12` [Cipargamin], the selectivity indexes [1] is reported as < 5.

In the case of `CCN(CC)Cc1cc(Nc2ccnc3cc(Cl)ccc23)ccc1O` [amodiaquine], the IC50 [2] is given as 2.6 µM.

For `CCN(CC)CCCC(C)Nc1ccnc2cc(Cl)ccc12` (stereo not shown) [chloroquine], the EC50 [3] is listed as 4 µM.

In the case of `NC(=O)c1nc(F)c[nH]c1=O` [Favipiravir (T-705), Favipiravir], the “EBOV activity (in words)” value [1] is given as “inactive; also recorded: no activity at the concentrations tested”, the EC50 [4] is given as 10 to 63 mg/L and the IC50 [4] is given as 67 µM.

For `Nc1nc2c(ncn2COCCO)c(=O)[nH]1` [Acyclovir], the “EBOV activity (in words)” value [1] was “lacked an activity”.

With `CCCCN(CCCC)CC(O)c1cc(Cl)cc2c1-c1ccc(Cl)cc1/C2=C/c1ccc(Cl)cc1` (stereo not shown) [Lumefantrine] the “EBOV activity (in words)” value [1] was “inactive”.

For `Clc1ccc2c(N3CCN(CCCN4CCN(c5ccnc6cc(Cl)ccc56)CC4)CC3)ccnc2c1` [Piperaquine Phosphate 4H20], the “EBOV activity (in words)” value [1] was “inactive”.

Work on `C[C@H]1[C@H](OC(=O)CCC(=O)O)O[C@@H]2O[C@@]3(C)CC[C@H]4[C@H](C)CC[C@@H]1[C@@]24OO3` [Artesunate] yielded an IC50 ([1]; Zaire ebolavirus, HeLa, read-out: IC50 (EBOV inhibitory activity)) of 8.2 µM.
